Results taken from patent EP0372667A1, “2-Hydroxymethyl thiophene derivatives, process for their preparation and their use as medicaments” (SCHERING AKTIENGESELLSCHAFT, priority 1988, dated 1990).
Structures can show the parent of a compound that is named as a salt.

Tests used:
[1] = tested on: narkotisierten, normtensiven Hunden; assay: Blood pressure and heart rate in anaesthetised normotensive dogs; type: in vivo, Beagle-Hunde; settings: anaesthetised normotensive dog, at a dose giving a similar fall in blood pressure; text summary of Tabelle 2
Description: (§1) Die Messungen von Blutdruck und Herzfrequenz wurden an der spontan hypertensiven Ratte und am narkotisierten, normotensiven Hund durchgeführt (siehe Tabelle 1 und 2).

[2] = tested on: wachen, spontan hypertensiven Ratten; assay: Blood pressure and heart rate in conscious spontaneously hypertensive rats; settings: in vivo
Description: as §1

| Compound | Herzfrequenz (result in words) [1] | Herzfrequenz (result in words) [2] |
| --- | --- | --- |
| O=C1c2cc(CO)sc2CCC1CN[C@@H]1CC[C@@H](Oc2ccccc2)[C@@H]1O (relative stereo) [Beispiel 1, 5-[N-((Z)-2-Hydroxy-(E)-3-phenoxy-cyclopentyl)-aminomethyl]-4,5,6,7-tetrahydro-2-hydroxymethyl-benzothiophen-4-on, Hydrochlorid] | praktisch keine Herzfrequenzänderung | Herzfrequenzerniedrigung |
| Cc1cc2c(s1)CCC(CN[C@@H]1CC[C@@H](Oc3ccccc3)[C@@H]1O)C2=O (relative stereo) [MDL 19744 A] | ausgeprägten Herzfrequenzsteigerung | ausgeprägten Herzfrequenzsteigerung |
